Laboratory results taken from ChEMBL document CHEMBL1159041, “A study of the effects of substituents on the selectivity of the binding of N-arylaminomethylene malonate inhibitors to DHODH” (Bioorg Med Chem Lett, 2010).

Tests used:
[1] = biological target: T1, Dihydroorotate dehydrogenase (Plasmodium falciparum) (UniProt Q54A96); assay: Inhibition of Plasmodium falciparum DHODH at 50 uM
T1 sequence (whole entry): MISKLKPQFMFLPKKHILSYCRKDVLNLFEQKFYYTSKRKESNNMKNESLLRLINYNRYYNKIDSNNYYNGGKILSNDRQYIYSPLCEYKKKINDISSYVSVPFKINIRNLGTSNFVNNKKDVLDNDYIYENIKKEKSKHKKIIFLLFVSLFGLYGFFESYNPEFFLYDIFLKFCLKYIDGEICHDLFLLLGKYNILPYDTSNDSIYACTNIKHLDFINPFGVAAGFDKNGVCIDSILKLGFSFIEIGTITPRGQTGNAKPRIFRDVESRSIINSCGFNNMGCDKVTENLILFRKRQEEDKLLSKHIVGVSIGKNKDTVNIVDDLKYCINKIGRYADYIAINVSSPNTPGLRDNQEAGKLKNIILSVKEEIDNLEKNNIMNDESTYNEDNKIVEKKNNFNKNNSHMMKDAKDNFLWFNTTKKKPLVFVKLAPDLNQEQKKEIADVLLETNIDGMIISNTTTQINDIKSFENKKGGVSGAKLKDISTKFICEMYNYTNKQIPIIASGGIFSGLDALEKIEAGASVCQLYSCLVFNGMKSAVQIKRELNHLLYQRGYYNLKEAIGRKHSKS

[2] = biological target: Dihydroorotate dehydrogenase (quinone), mitochondrial (Homo sapiens) (UniProt Q02127); assay: Inhibition of human DHODH at 50 uM
Sequence of Dihydroorotate dehydrogenase (quinone), mitochondrial (Homo sapiens) (Q02127 whole entry): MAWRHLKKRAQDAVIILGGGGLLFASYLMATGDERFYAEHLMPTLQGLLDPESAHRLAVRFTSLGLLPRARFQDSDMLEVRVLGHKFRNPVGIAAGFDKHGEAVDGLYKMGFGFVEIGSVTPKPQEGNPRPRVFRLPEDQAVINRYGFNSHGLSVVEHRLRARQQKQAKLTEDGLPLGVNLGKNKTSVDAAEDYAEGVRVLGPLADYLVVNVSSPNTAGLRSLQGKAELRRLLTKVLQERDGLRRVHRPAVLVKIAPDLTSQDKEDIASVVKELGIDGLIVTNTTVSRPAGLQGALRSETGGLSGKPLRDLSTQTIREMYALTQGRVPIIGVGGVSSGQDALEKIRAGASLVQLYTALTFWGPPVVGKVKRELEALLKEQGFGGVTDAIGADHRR

inhibition [1] [%]	inhibition [2] [%]	Compound
23	2	CCOC(=O)/C(C#N)=C\Nc1cccc(C(=O)OCC)c1
33	39	CCOC(=O)/C(C#N)=C\Nc1ccc(C(=O)O)c(Cl)c1
0	1	CCOC(=O)c1cccc(NC=C2C(=O)OC(C)(C)OC2=O)c1
28	32	CC1(C)OC(=O)C(=CNc2ccc(C(=O)O)cc2)C(=O)O1
15	4	CCOC(=O)C(=CNc1ccc(C(=O)OCC)cc1)C(=O)OCC
24	14	CCOC(=O)/C(C#N)=C\Nc1ccc(Cl)c(C(=O)OCC)c1
60	8	CCOC(=O)C(=CNc1ccc(C(=O)OCC)c(Cl)c1)C(=O)OCC
25	27	CC1(C)OC(=O)C(=CNc2cccc(C(=O)O)c2)C(=O)O1
37	39	CCOC(=O)C(=CNc1ccc(Cl)c(C(=O)O)c1)C(=O)OCC
0	3	CCOC(=O)c1ccc(NC=C2C(=O)OC(C)(C)OC2=O)cc1
0	23	CCOC(=O)/C(C#N)=C\Nc1cccc(C(=O)O)c1
41	21	CC1(C)OC(=O)C(=CNc2ccc(C(=O)O)c(Cl)c2)C(=O)O1
50	21	CC1(C)OC(=O)C(=CNc2ccc(Cl)c(C(=O)O)c2)C(=O)O1
66	12	CCOC(=O)/C(C#N)=C\Nc1ccc(C(=O)OCC)c(Cl)c1
0	29	CCOC(=O)/C(C#N)=C\Nc1ccc(C(=O)O)cc1
54	33	CCOC(=O)C(=CNc1cccc(C(=O)O)c1)C(=O)OCC
39	16	CCOC(=O)C(=CNc1ccc(Cl)c(C(=O)OCC)c1)C(=O)OCC
44	45	CCOC(=O)/C(C#N)=C\Nc1ccc(Cl)c(C(=O)O)c1
0	5	CCOC(=O)c1cc(NC=C2C(=O)OC(C)(C)OC2=O)ccc1Cl
0	5	CCOC(=O)C(=CNc1cccc(C(=O)OCC)c1)C(=O)OCC
43	37	CCOC(=O)C(=CNc1ccc(C(=O)O)cc1)C(=O)OCC
12	0	CCOC(=O)c1ccc(NC=C2C(=O)OC(C)(C)OC2=O)cc1Cl
2	2	CCOC(=O)/C(C#N)=C\Nc1ccc(C(=O)OCC)cc1
